According to article PMC7689490, “Designed CXCR4 mimic acts as a soluble chemokine receptor that blocks atherogenic inflammation by agonist-specific targeting” (Nature Communications, 2020):
Several values for one entry are separate records, joined by “and”; a condition that tells them apart may be missing. Identical values can stand only once. Like-named read-outs stand apart in the source and are kept apart here. Where a SMILES comes first, the peptide text is derived from it.

Key:
[1] = test system: primary human monocyte-derived macrophages; assay: MIF-mediated DiI-LDL uptake / foam cell formation; format: cell-based; conditions: 80 nM MIF
Protocol: (§1) After washing with imaging solution (MEM without phenol red containing 30 mM HEPES, 0.5 g/L NaHCO3, pH 7.4, and 0.2% BSA), cells were exposed to 50 µg mL^−1 1,1′-dioctadecyl-3,3,3′3′-tetramethylindocarbocyanine-labeled oxidized LDL (DiI-oxLDL) or DiI-labeled native LDL (DiI-LDL) for 30 min at 4 °C, followed by incubation at 37 °C for 20 min. Cells were washed with ice-cold imaging solution (pH 3.5), fixed, and counter-stained with Hoechst 33258.

[2] = test system: primary human monocyte-derived macrophages; assay: MIF-mediated DiI-oxLDL uptake / foam cell formation; format: cell-based; conditions: 80 nM MIF; AMD3100 10 µM
Protocol: as §1

pAMPK/AMPK in HCM = assay: MIF/CD74-triggered AMPK signaling in human cardiomyocytes (HCM); format: cell-based
Protocol: HCMs (2 × 10^5 per well) were plated in 12-well plates and maintained for 2 days with cultured medium containing 5% FCS. Before stimulation, medium was replaced by fresh myocyte basal medium containing 0.05% FCS and HCMs rested for 16 h. Surface CD74 expression on HCMs was verified by flow cytometry (FITC-conjugated anti-human CD74 (1:100 dilution), FITC-IgG2 (isotype control) (BD Pharmingen), 1 h/4 °C in the dark, BD FACSVerse™ flow cytometer, FlowJo software). […] After treatment, cells were lysed and subjected to SDS-PAGE (10%)/Western blotting using NuPAGE® lithium dodecyl sulfate (LDS)/dithiothreitol (DTT) lysis buffer-containing PhosSTOP^TM reagent (Roche Applied Science). […] Anti-rabbit horse-radish peroxidase (HRP)-conjugated antibody (1:10000, GE Healthcare, Freiburg, Germany) was used for development and signals quantitated by chemiluminescence using an Odyssey® Fc imager. Unprocessed scans of the Western blots are supplied in the Source Data file.

MIF/CD74 = conditions: read-out: IC50 value for MIF/CD74 binding; ref [16],[43]; cited from earlier work
From the text: Specificity of the inhib ...

in vitro [3] = conditions: C57/BL6, mouse, plasma
in vitro [4] = conditions: human, plasma
MIF = target: T1, MIF (Homo sapiens, UniProt P14174); assay: Fluorescence spectroscopic titration of CXCR4 ectodomain peptides (and ISO-1) with MIF; format: binding
T1 construct: made in house; host or cells: E. coli BL21/DE3 (pET11b)
T1 sequence (P14174 2-115): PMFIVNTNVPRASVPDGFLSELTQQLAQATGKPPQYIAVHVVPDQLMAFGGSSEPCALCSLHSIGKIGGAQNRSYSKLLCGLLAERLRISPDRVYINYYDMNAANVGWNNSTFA

[5] = test system: primary mouse spleen B lymphocytes; assay: MIF-triggered Transwell chemotaxis of primary splenic B cells; format: cell-based; conditions: 16 nM MIF; peptide at 5-fold molar excess (80 nM);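 also: migration tracked over 4 h at 37 °C, read out as transmigrated cells counted by flow cytometry with absolute counting beads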
[6] = Circular dichroism (CD) spectroscopy (conformation, concentration dependence); format: physicochemical; conditions: far-UV CD at 1-20 µM, 10 mM sodium phosphate pH 7.4, 1% HFIP; region 210-225 nm; compared with msR4M-L1
Protocol: Briefly, far-UV CD measurements were carried out between 195 and 250 nm. The response time was set at 1 s, intervals at 0.1 nm, and bandwidth at 1 nm. All spectra were measured at RT and represent an average of three recorded spectra. Scans were recorded for the ectodomain mimic peptides at a concentration of 1–20 µM in 10 mM sodium phosphate buffer, pH 7.4, containing 1% HFIP, following dilution of freshly made peptide stock solution in HFIP (4 °C) into the buffer-containing cuvette. […] The background spectrum of buffer/1% HFIP alone was subtracted from the spectra of the peptides.

## c1cc(CN2CCCNCCNCCCNCC2)ccc1CN1CCCNCCNCCCNCC1 [AMD3100]
[1]; control ~1, MIF alone 2.09-3.63, individual experiments (four-times-two)
  DiI-LDL uptake (rel. units), MIF + AMD3100: 0.6486 and 2.2972 and 2.822 and 1.2299 and 1.463 and 1.618 and 1.791 and 1.537
[2]
  effect on MIF-mediated DiI-oxLDL uptake: blocked

## COC(=O)CC1CC(c2ccc(O)cc2)=NO1 (centres unmarked) [ISO-1]
pAMPK/AMPK in HCM; B-C: MIF alone vs. MIF + ISO-1 3.1
  Fig. 4e, Mean Diff, (Tukey's multiple comparisons test): 0.3348
pAMPK/AMPK in HCM; B-D: MIF alone vs. MIF + ISO-1 15.6
  Fig. 4e, Mean Diff, (Tukey's multiple comparisons test): 0.4593
pAMPK/AMPK in HCM; B-E: MIF alone vs. MIF + ISO-1 31.3
  Fig. 4e, Mean Diff, (Tukey's multiple comparisons test): 0.6907
pAMPK/AMPK in HCM; B-F: MIF alone vs. MIF + ISO-1 62.5
  Fig. 4e, Mean Diff, (Tukey's multiple comparisons test): 0.8729
MIF/CD74
  IC50: 10 µM

## CC[C@H](C)[C@H](NC(=O)[C@H](Cc1ccc(O)cc1)NC(=O)[C@H](CCCNC(=N)N)NC(=O)[C@H](CC(=O)O)NC(=O)CCCCCCCCCCCNC(=O)CCCCCNC(=O)[C@H](CCCCN)NC(=O)[C@H](CS)NC(=O)[C@H](CC(C)C)NC(=O)[C@H](Cc1ccccc1)NC(=O)[C@H](CC(N)=O)NC(=O)CNC(=O)[C@H](Cc1ccccc1)NC(=O)[C@H](Cc1ccc(O)cc1)NC(=O)[C@H](Cc1c[nH]c2ccccc12)NC(=O)[C@H](CC(N)=O)NC(=O)[C@H](C)NC(=O)[C@@H](NC(=O)[C@H](C)NC(=O)[C@H](CC(=O)O)NC(=O)c1ccc2c(c1)C(=O)OC21c2ccc(N(C)C)cc2Oc2cc(N(C)C)ccc21)C(C)C)C(=O)N[C@@H](CS)C(=O)N[C@@H](CC(=O)O)C(=O)N[C@@H](CCCNC(=N)N)C(=O)N[C@@H](Cc1ccccc1)C(=O)N[C@@H](Cc1ccc(O)cc1)C(=O)N1CCC[C@H]1C(=O)N[C@@H](CC(N)=O)C(=O)N[C@@H](CC(=O)O)C(=O)N[C@@H](CC(C)C)C(=O)N[C@@H](Cc1c[nH]c2ccccc12)C(=O)N[C@H](C(N)=O)C(C)C [TAMRA-msR4M-L1]
In vitro [3]
  half-life at 482 nM: ~1200 min
In vivo; C57/BL6, mouse, 50 ug
  level at 24 h: > 100 ng/mL
In vivo; C57BL/6, mouse, ip, 50 ug per mouse
  level at 48 h: ~100 ng/mL

## CC[C@H](C)[C@H](NC(=O)[C@H](Cc1ccc(O)cc1)NC(=O)[C@H](CCCNC(=N)N)NC(=O)[C@H](CC(=O)O)NC(=O)CCCCCCCCCCCNC(=O)CCCCCNC(=O)[C@H](CCCCN)NC(=O)[C@H](CS)NC(=O)[C@H](CC(C)C)NC(=O)[C@H](Cc1ccccc1)NC(=O)[C@H](CC(N)=O)NC(=O)CNC(=O)[C@H](Cc1ccccc1)NC(=O)[C@H](Cc1ccc(O)cc1)NC(=O)[C@H](Cc1c[nH]c2ccccc12)NC(=O)[C@H](CC(N)=O)NC(=O)[C@H](C)NC(=O)[C@@H](NC(=O)[C@H](C)NC(=O)[C@H](CC(=O)O)NC(=O)CCCCCNC(=O)CCCC[C@@H]1SC[C@@H]2NC(=O)N[C@@H]21)C(C)C)C(=O)N[C@@H](CS)C(=O)N[C@@H](CC(=O)O)C(=O)N[C@@H](CCCNC(=N)N)C(=O)N[C@@H](Cc1ccccc1)C(=O)N[C@@H](Cc1ccc(O)cc1)C(=O)N1CCC[C@H]1C(=O)N[C@@H](CC(N)=O)C(=O)N[C@@H](CC(=O)O)C(=O)N[C@@H](CC(C)C)C(=O)N[C@@H](Cc1c[nH]c2ccccc12)C(=O)N[C@H](C(N)=O)C(C)C [biotin-msR4M-L1]
In vitro [4]
  remaining at 16 h, 13.7 µM: ~45%

## CC[C@H](C)[C@H](NC(=O)[C@H](Cc1ccc(O)cc1)NC(=O)[C@H](CCCNC(=N)N)NC(=O)[C@H](CC(=O)O)NC(=O)CCCCCCCCCCCNC(=O)CCCCCNC(=O)[C@H](CCCCN)NC(=O)[C@H](CS)NC(=O)[C@H](CC(C)C)NC(=O)[C@H](C)NC(=O)[C@H](CC(N)=O)NC(=O)CNC(=O)[C@H](C)NC(=O)[C@H](C)NC(=O)[C@H](C)NC(=O)[C@H](CC(N)=O)NC(=O)[C@H](C)NC(=O)[C@@H](NC(=O)[C@H](C)NC(=O)[C@@H](N)CC(=O)O)C(C)C)C(=O)N[C@@H](CS)C(=O)N[C@@H](CC(=O)O)C(=O)N[C@@H](CCCNC(=N)N)C(=O)N[C@@H](C)C(=O)N[C@@H](C)C(=O)N1CCC[C@H]1C(=O)N[C@@H](CC(N)=O)C(=O)N[C@@H](CC(=O)O)C(=O)N[C@@H](CC(C)C)C(=O)N[C@@H](C)C(=O)N[C@H](C(N)=O)C(C)C [msR4M-L1(7xAla)] (HELM PEPTIDE1{D.A.V.A.N.A.A.A.G.N.A.L.C.K.[O=C(CCCCCN[*:1])[*:2]].[O=C(CCCCCCCCCCCN[*:1])[*:2]].D.R.Y.I.C.D.R.A.A.P.N.D.L.A.V.[am]}$$$$V2.0)
[1]
  inhibition of MIF-mediated DiI-LDL uptake: failed to inhibit
MIF
  Kd: > 1000 nM
MIF; App. Kd Fluos-peptide/MIF, 1st curve, fluorescence spectroscopy, replicate 1
  Kd: > 1000 nM
MIF; App. Kd Fluos-peptide/MIF, 2nd curve, fluorescence spectroscopy, replicate 2
  Kd: > 1000 nM
MIF; App. Kd Fluos-peptide/MIF, 3rd curve, fluorescence spectroscopy, replicate 3
  Kd: > 1000 nM
MIF; app. KD Fluos-labeled alanine analog/MIF, fluorescence titration spectroscopy, n=3
  Kd: > 1000 nM
[5]
  inhibition of MIF-mediated B-cell chemotaxis: failed to inhibit

## CC[C@H](C)[C@H](NC(=O)[C@H](Cc1ccc(O)cc1)NC(=O)[C@H](CCCNC(=N)N)NC(=O)[C@H](CC(=O)O)NC(=O)CCCCCCCCCCCNC(=O)COCCOCCNC(=O)[C@H](CCCCN)NC(=O)[C@H](CS)NC(=O)[C@H](CC(C)C)NC(=O)[C@H](Cc1ccccc1)NC(=O)[C@H](CC(N)=O)NC(=O)CNC(=O)[C@H](Cc1ccccc1)NC(=O)[C@H](Cc1ccc(O)cc1)NC(=O)[C@H](Cc1c[nH]c2ccccc12)NC(=O)[C@H](CC(N)=O)NC(=O)[C@H](C)NC(=O)[C@@H](NC(=O)[C@H](C)NC(=O)[C@@H](N)CC(=O)O)C(C)C)C(=O)N[C@@H](CS)C(=O)N[C@@H](CC(=O)O)C(=O)N[C@@H](CCCNC(=N)N)C(=O)N[C@@H](Cc1ccccc1)C(=O)N[C@@H](Cc1ccc(O)cc1)C(=O)N1CCC[C@H]1C(=O)N[C@@H](CC(N)=O)C(=O)N[C@@H](CC(=O)O)C(=O)N[C@@H](CC(C)C)C(=O)N[C@@H](Cc1c[nH]c2ccccc12)C(=O)N[C@H](C(N)=O)C(C)C [msR4M-L2]
[6]
  aggregation propensity from concentration-dependent CD signal: higher aggregation propensity
[5]
  inhibition of MIF-mediated B-cell chemotaxis: fully blocked
